Results from article PMC11345332, “Expression, Purification and Biophysical Characterisation of Klebsiella Pneumoniae Protein Adenylyltransferase: A Systematic Integration of Empirical and Computational Modelling Approaches” (The Protein Journal, 2024).

Legend:
[1] = target: T1, KpPrAT (Klebsiella pneumoniae protein adenylyltransferase) (Klebsiella variicola, UniProt B5XQE2); assay: fluorescence emission blue shift and intensity increase; type: binding; set-up: gene ydiU; synthetic gene in pET-11a (NdeI/BamHI), N-terminal His6 tag kept (no cleavage described), E. coli T7 cells, Ni-IMAC, about 54 kDa; conditions: 10 µM mant-ATP, 2 µM protein, 20 mM sodium phosphate pH 7.4, 20 °C, with or without 5 mM MgCl2; labelled compound
T1 sequence (B5XQE2 whole entry): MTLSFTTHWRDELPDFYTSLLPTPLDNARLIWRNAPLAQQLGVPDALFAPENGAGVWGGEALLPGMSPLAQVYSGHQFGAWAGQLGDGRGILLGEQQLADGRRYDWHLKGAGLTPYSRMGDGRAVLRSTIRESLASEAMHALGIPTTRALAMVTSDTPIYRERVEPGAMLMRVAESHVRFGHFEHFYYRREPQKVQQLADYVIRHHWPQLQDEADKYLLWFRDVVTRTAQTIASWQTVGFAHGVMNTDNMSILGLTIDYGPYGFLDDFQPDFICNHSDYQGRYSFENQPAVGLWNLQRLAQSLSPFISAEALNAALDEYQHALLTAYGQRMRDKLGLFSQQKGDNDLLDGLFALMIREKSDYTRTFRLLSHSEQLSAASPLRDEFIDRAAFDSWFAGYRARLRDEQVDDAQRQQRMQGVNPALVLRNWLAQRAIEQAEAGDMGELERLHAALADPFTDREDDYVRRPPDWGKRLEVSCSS

[2] = target: T1, KpPrAT (Klebsiella pneumoniae protein adenylyltransferase); assay: biochemical; set-up: gene ydiU
Excerpt: isothermal titration calorimetry on KpPrAT (Klebsiella pneumoniae protein adenylyltransferase)

Row | SMILES | fluorescence emission blue shift and intensity increase [1] | Kd [2] [nM]
1 | CNc1ccccc1C(=O)O[C@H]1[C@@H](O)[C@H](n2cnc3c(N)ncnc32)O[C@@H]1COP(=O)(O)OP(=O)(O)OP(=O)(O)O [mant-ATP, 2ʹ/3’-O-(N-Methylanthraniloyl) adenosine 5ʹ-triphosphate] | An increase in fluorescence intensity and blue shift occurs when KpPrAT binds to mant-ATP | 
2 | Nc1ncnc2c1ncn2[C@@H]1O[C@H](COP(=O)(O)OP(=O)(O)OP(=O)(O)O)[C@@H](O)[C@H]1O [ATP] |  | 2930
